Test results from patent US8232107B2, “Methods for measuring the metabolism of neurally derived biomolecules in vivo” (Washington University in St. Louis, priority 2005, dated 2012).
One block for each compound: values may come before it.

How the values were obtained:
[1] = in vivo, iv, 2 mg/kg
Description: All human studies were approved by the Washington University Human Studies Committee and the General Clinical Research Center (GCRC) Advisory Committee. Informed consent was obtained from all participants. All participants were screened to be in good general health and without neurologic disease. Seven men and three women (23-45 yrs old) participated. Each research participant was admitted to the GCRC at 7:00 AM after an overnight fast from 8 PM the preceding evening. The GCRC Research Kitchen provided meals (60% carbohydrate, 20% fat, 20% protein, low leucine diet during labeled leucine infusion) at 9 AM, 1 PM, and 6 PM and the participant had free access to water. All food and water consumption was recorded during the admission by nursing staff and the GCRC kitchen. One intravenous catheter was placed in an antecubital vein and used to administer the stable isotope labeled leucine solution. A second intravenous catheter was placed in the contra-lateral antecubital vein to obtain blood samples. A subarachnoid catheter was inserted at the L3-L4 interspace via a Touhy needle, so that CSF could be sampled without performing multiple lumbar punctures (Williams, 2002, Neurology 58: 1859-1860). […]
Every hour, 10 ml of plasma was obtained through the other IV. […] To obtain amino acid sequence and abundance data, these parent ions were subjected to collision induced dissociation (CID 28%), and tandem MS analysis of their doubly-charged species ([M+2H]^+2; m/z 663.6 and 666.6) were scanned in selected reaction monitoring mode (SRM), so that the y- and b-series ions generated were used for isotope ratio quantitation (FIG. 6). […]
Plasma and CSF samples were analyzed to determine the amount of labeled leucine present in each fluid (FIG. 9). The labeled to unlabeled leucine ratios for plasma and CSF ^13C6-leucine were quantified using capillary gas chromatography-mass spectrometry (GC-MS) (Yarasheski et al. 2005, Am J. Physiol. Endocrinol. Metab. 288: E278-284; Yarasheski et al. 1998 Am J. Physiol. 275: E577-583), which is more appropriate than LC-ESI-MS for low mass amino acid analysis.

[2] = Measurement of ApoE metabolism in vivo (CSF, WUE4 affinity purification, nanoLC tandem MS); parameters: species or system human
Description: As depicted in FIG. 13, human ApoE was immunoprecipitated from CSF or astrocyte cell culture media using WUE4, a specific anti-human ApoE monoclonal (anti-ApoE) antibody. An immortalized astrocyte cell line from transgenic mice expressing human ApoE was used to produce ^13C6-labeled leucine ApoE standards. Immunoprecipitated ApoE was then digested with sequencing-grade trypsin. Released peptides were separated by nano liquid chromatography and quantitated by tandem mass spectrometry (nanoLC-MS). The efficiency and selectivity of the immuno-affinity purification was confirmed by analyzing the samples following a general proteomics LC-MS method. Results from Bioworks™3.2, using the SEQUEST algorithm, confirmed ApoE was the predominant protein present in samples, and identified the most abundant peptides containing leucines, which could be used for quantitation. Due to the 6 Da mass shift of a ^13C6-labeled leucine, unlabeled peptides were distinguishable from labeled peptides. Tandem MS was performed on the peptides of interest, and the percent of ^13C-leucine incorporated into ApoE was determined by calculating the ratio of labeled product ions to unlabeled product ions. The excellent linearity from 0-25% labeling (R^2=0.99) indicates the method developed to measure ApoE is sensitive, specific, and accurate.
CSF was collected every hour for 36 hours.

[3] = In vivo labeling of Aβ in human CSF, immunoprecipitation-MS/MS, calculation of FSR and FCR
Description: Informed consent was obtained from all participants. […] CSF samples were obtained hourly throughout the study.
Aβ metabolic labeling curves of three participants are presented in FIG. 8. ^13C6-labeled leucine was infused through one IV at a rate of 1.9 (circles), 2.5 (triangles), or 2.5 (squares) mg/kg/hr for 12 (circles, triangles) or 9 (squares) hours. Each hour, 10 ml of plasma and 6 ml of CSF were obtained through the other IV and the lumbar catheter, respectively. There was a 5-hour lag time before significant rises in labeled Aβ was detected. This was followed by a 9 (squares) or 12 (triangles or circles) hour increase in labeled Aβ until it plateaued for another 5 hours.
For each hourly sample of CSF collected, the ratio of labeled to unlabeled Aβ was determined by immunoprecipitation-MS/MS, as described above. The MS/MS ions from ^13C6-labeled Aβ17-28 were divided by the MS/MS ions from unlabeled Aβ17-28 to produce a ratio of labeled Aβ to unlabeled Aβ (see TTR formula, above). There was no measurable labeled Aβ for the first 4 hours, followed by an increase from 5 to 13 hours. There was no significant change from 13 to 24 hours. The labeled Aβ decreased from 24 to 36 hours.
[formula] Where (Et2-Et1)Aβ/(t2-t1) is defined as the slope of labeled Aβ during labeling and the Precursor E is the ratio of labeled leucine. FSR, in percent per hour, was operationally defined as the slope of the linear regression from 6 to 15 hours divided by the average of CSF ^13C6-labeled leucine level during infusion (see FIG. 11A-C). For example, a FSR of 7.6% per hour means that 7.6% of total Aβ was produced each hour.
The fractional clearance rate (FCR) was calculated by fitting the slope of the natural logarithm of the clearance portion of the labeled Aβ curve, according to the following formula: […]
The FCR was operationally defined as the natural log of the labeled Aβ from 24 to 36 hours (FIG. 11D-F). For example, a FCR of 8.3% per hour means that 8.3% of total Aβ was cleared each hour. The average FSR of Aβ for these 6 healthy young participants was 7.6%/hr and the average FCR was 8.3%/hr (FIG. 12). These values were not statistically different from each other.

steady state level of 13C6-leucine in CSF [1]: 10% | steady state level of 13C6-leucine in plasma [1]: 14% | time to reach steady state levels in plasma and CSF [1]: within an hour
Compound: CC(C)C[C@H](N)C(=O)O [^13C6-leucine]

Compound: ApoE: human apolipoprotein E, CNS-derived, purified from CSF
fractional synthesis rate (FSR) of ApoE ([2]; CSF, young normal controls (FIG. 15 and 16)): approximately 2 percent per hour | time in which approximately half of the ApoE pool is synthesized in the human brain ([2]; from FSR): about 24 hours

Compound: Aβ: amyloid-β protein, CNS derived biomolecule whose metabolism is measured
average fractional synthesis rate (FSR) of Aβ ([3]; 6 healthy young participants): 7.6 %/hr | average fractional clearance rate (FCR) of Aβ ([3]; hours 24 to 36, 3 participants): 8.3 %/hr | initial period with no measurable labeled Aβ ([3]; mean of n=6 (FIG. 10)): 4 h | lag time before significant rises in labeled Aβ ([3]; three participants (FIG. 8)): 5 h
